Assays:
Intestinal cell = Intestinal cell experiment: hydrogen peroxide irritation, cell activity by MTT method; format: cell-based; settings: 2 mM hydrogen peroxide for 2 h, then cultured 4 h
Procedure: Cell experiment: Intestinal cell experiment is performed on a carrying complex. 100 μL of a carrying material-nutritional factor complex dissolved solution is added to a cell culture solution, 2 mM of a hydrogen peroxide solution is added for irritating cells for 2 h, and the cells are continued to be cultured for 4 h. Cell activity is detected by an MTT method.

[1] = Biological stability by oxidation rate POV (potassium thiocyanate peroxide value method); format: physicochemical; settings: conjugated linoleic acid carried; stability from maximum peroxide value (POV)
Procedure: To better realize the present invention, biological stability is characterized by determining the oxidation rate POV (peroxide value) by applying a potassium thiocyanate POV determining method. POV is calculated through the formula below: […]
c and c0 are the mass of iron in a test sample and a blank sample; m is the mass of CLA; 2 is a conversion factor; and 55.84 is the relative atomic mass of iron. The degree of oxidation of pure nutritional factors serves as control, and the maximum values of the amount of peroxide (POV) in the control and the material are calculated and compared. POV is the amount of peroxide in a first stage product obtained after fat oxidation. Because it cannot be excluded that a small amount of peroxide continues to decompose into small molecular substances under an oxidizing environment, the stability is characterized by: Stability[…](100−100 g CLA maximum value of the amount of peroxide generated by oxidation)/100*100%.

| Molecule | Cell activity % (Intestinal cell; 1 μg/ml) [%] | Cell activity % (Intestinal cell; 10 μg/ml) [%] | Biological stability [1] [%] |
| --- | --- | --- | --- |
| COC1=C(OC)C(=O)C(C/C=C(\C)CC/C=C(\C)CC/C=C(\C)CC/C=C(\C)CC/C=C(\C)CC/C=C(\C)CC/C=C(\C)CC/C=C(\C)CC/C=C(\C)CCC=C(C)C)=C(C)C1=O [Coenzyme Q10, coenzyme Q10] | 92 ± 3.4 | 97 ± 2.6 |  |
| conjugated linoleic acid [Control 1] |  |  | 58.2 |

Source: patent US11311043B2, “Preparation of glucan-based shell-core structure carrier material and its application thereof” (Jiangnan University, priority 2018, dated 2022)
